Laboratory results reported in PubChem BioAssay AID248 (DTP/NCI, 2004).
Several values for one entry are separate records, joined by “and”; a condition that tells them apart may be missing. Identical values can stand only once. Toxic doses and inconclusive results are not listed.

Tested on: L1210 leukemia ip in BDF1 mice, survival T/C
Assay: NCI In Vivo Anticancer Drug Screen. Data for tumor model L1210 Leukemia (intraperitoneal) in B6D2F1 (BDF1) mice
Conditions: endpoint: mean survival time, higher = longer survival
Procedure, shortened: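 Read-out is survival time, reported as the treated-group measurement over the vehicle-control measurement.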

**Q.** With `Nc1nc(=S)c2[nH]cnc2[nH]1` as the compound, how does the T/C (dose: 0.04 mg/kg/injection, schedule: Q01DX Z (ip), vehicle: carboxymethylcellulose (CMC)) read?
**A.** 113 % of control

**Q.** And the T/C (dose: 0.06 mg/kg/injection, schedule: Q01DX009 (ip), vehicle: alkali diluted with saline)?
**A.** 106 % of control and 108 % of control

**Q.** What about the T/C (dose: 0.06 mg/kg/injection, schedule: Q01DX Z (ip), vehicle: carboxymethylcellulose (CMC)) of the same compound?
**A.** 105 % of control

**Q.** And the T/C (dose: 0.06 mg/kg/injection, schedule: Q#A X Z (ip), vehicle: saline)?
**A.** 121 % of control

**Q.** And the T/C (dose: 0.09 mg/kg/injection, schedule: Q01DX Z (ip), vehicle: carboxymethylcellulose (CMC))?
**A.** 109 % of control

**Q.** What about the T/C (dose: 0.12 mg/kg/injection, schedule: Q01DX009 (ip), vehicle: alkali diluted with saline) of the same compound?
**A.** 111 % of control

**Q.** And the T/C (dose: 0.13 mg/kg/injection, schedule: Q01DX Z (ip), vehicle: saline)?
**A.** 111 % of control

**Q.** What about the T/C (dose: 0.13 mg/kg/injection, schedule: Q01DX Z (sc), vehicle: saline) of the same compound?
**A.** 107 % of control

**Q.** What about the T/C (dose: 0.14 mg/kg/injection, schedule: Q01DX Z (ip), vehicle: carboxymethylcellulose (CMC)) of the same compound?
**A.** 110 % of control

**Q.** What about the T/C (dose: 0.22 mg/kg/injection, schedule: Q01DX Z (ip), vehicle: carboxymethylcellulose (CMC)) of the same compound?
**A.** 115 % of control

**Q.** And the T/C (dose: 0.22 mg/kg/injection, schedule: Q07DX003 (ip), vehicle: saline)?
**A.** 113 % of control

**Q.** What about the T/C (dose: 0.25 mg/kg/injection, schedule: Q01DX Z (sc), vehicle: saline) of the same compound?
**A.** 116 % of control

**Q.** What about the T/C (dose: 0.33 mg/kg/injection, schedule: Q01DX015 (ip), vehicle: alkali diluted with saline) of the same compound?
**A.** 102 % of control

**Q.** And the T/C (dose: 0.33 mg/kg/injection, schedule: Q01DX Z (ip), vehicle: carboxymethylcellulose (CMC))?
**A.** 119 % of control

**Q.** And the T/C (dose: 0.37 mg/kg/injection, schedule: Q03DX006 (ip), vehicle: saline)?
**A.** 114 % of control

**Q.** And the T/C (dose: 0.43 mg/kg/injection, schedule: Q01DX009 (ip), vehicle: alkali diluted with saline)?
**A.** 152 % of control

**Q.** And the T/C (dose: 0.44 mg/kg/injection, schedule: Q07DX003 (ip), vehicle: saline)?
**A.** 122 % of control

**Q.** What about the T/C (dose: 0.5 mg/kg/injection, schedule: Q01DX006 (iv), vehicle: saline) of the same compound?
**A.** 106 % of control

**Q.** What about the T/C (dose: 0.5 mg/kg/injection, schedule: Q01DX Z (im), vehicle: saline) of the same compound?
**A.** 109 % of control

**Q.** And the T/C (dose: 0.5 mg/kg/injection, schedule: Q01DX Z (ip), vehicle: carboxymethylcellulose (CMC))?
**A.** 111 % of control

**Q.** What about the T/C (dose: 0.5 mg/kg/injection, schedule: Q01DX Z (oral), vehicle: saline) of the same compound?
**A.** 113 % of control

**Q.** What about the T/C (dose: 0.55 mg/kg/injection, schedule: Q01DX015 (ip), vehicle: alkali diluted with saline) of the same compound?
**A.** 151 % of control

**Q.** What about the T/C (dose: 0.55 mg/kg/injection, schedule: Q## X015 (ip), vehicle: alkali diluted with saline) of the same compound?
**A.** 151 % of control

**Q.** And the T/C (dose: 0.75 mg/kg/injection, schedule: Q03DX006 (ip), vehicle: saline)?
**A.** 118 % of control

**Q.** And the T/C (dose: 0.88 mg/kg/injection, schedule: Q01DX001 (ip), vehicle: saline)?
**A.** 115 % of control

**Q.** And the T/C (dose: 0.88 mg/kg/injection, schedule: Q03HX016 (ip), vehicle: alkali diluted with saline)?
**A.** 150 % of control

**Q.** What about the T/C (dose: 0.88 mg/kg/injection, schedule: Q03HX024 (ip), vehicle: alkali diluted with saline) of the same compound?
**A.** 152 % of control

**Q.** What about the T/C (dose: 0.9 mg/kg/injection, schedule: Q01DX015 (ip), vehicle: alkali diluted with saline) of the same compound?
**A.** 152 % of control

**Q.** And the T/C (dose: 1.0 mg/kg/injection, schedule: Q01DX006 (iv), vehicle: saline)?
**A.** 112 % of control

**Q.** What about the T/C (dose: 1.0 mg/kg/injection, schedule: Q01DX Z (ip), vehicle: carboxymethylcellulose (CMC)) of the same compound?
**A.** 152 % of control

**Q.** And the T/C (dose: 1.0 mg/kg/injection, schedule: Q01DX Z (oral), vehicle: saline)?
**A.** 116 % of control

**Q.** And the T/C (dose: 1.2 mg/kg/injection, schedule: Q03HX032 (ip), vehicle: alkali diluted with saline)?
**A.** 151 % of control and 152 % of control

**Q.** And the T/C (dose: 1.5 mg/kg/injection, schedule: Q03DX006 (ip), vehicle: saline)?
**A.** 154 % of control

**Q.** What about the T/C (dose: 1.75 mg/kg/injection, schedule: Q01DX001 (ip), vehicle: saline) of the same compound?
**A.** 109 % of control

**Q.** And the T/C (dose: 1.8 mg/kg/injection, schedule: Q04DX002 (ip), vehicle: alkali diluted with saline)?
**A.** 110 % of control

**Q.** And the T/C (dose: 2.0 mg/kg/injection, schedule: Q01DX Z (sc), vehicle: saline)?
**A.** 153 % of control

**Q.** And the T/C (dose: 2.5 mg/kg/injection, schedule: Q01DX010 (ip), vehicle: other)?
**A.** 123 % of control

**Q.** And the T/C (dose: 3.5 mg/kg/injection, schedule: Q01DX001 (ip), vehicle: saline)?
**A.** 109 % of control and 120 % of control

**Q.** What about the T/C (dose: 3.5 mg/kg/injection, schedule: Q04DX008 (ip), vehicle: alkali diluted with saline) of the same compound?
**A.** 154 % of control

**Q.** And the T/C (dose: 3.7 mg/kg/injection, schedule: Q01DX Z (ip), vehicle: carboxymethylcellulose (CMC))?
**A.** 110 % of control

**Q.** What about the T/C (dose: 4.0 mg/kg/injection, schedule: Q01DX Z (im), vehicle: saline) of the same compound?
**A.** 119 % of control

**Q.** What about the T/C (dose: 4.0 mg/kg/injection, schedule: Q01DX Z (ip), vehicle: carboxymethylcellulose (CMC)) of the same compound?
**A.** 93 % of control

**Q.** And the T/C (dose: 4.0 mg/kg/injection, schedule: Q01DX Z (sc), vehicle: saline)?
**A.** 106 % of control

**Q.** And the T/C (dose: 5.0 mg/kg/injection, schedule: Q01DX010 (ip), vehicle: other)?
**A.** 98 % of control and 104 % of control

**Q.** And the T/C (dose: 5.3 mg/kg/injection, schedule: Q04DX012 (ip), vehicle: alkali diluted with saline)?
**A.** 153 % of control
